# Species: Rattus norvegicus
# Experiment: DrugMatrix - Regimen: Daily Repeat
# Format: toxicity, organism-based, Sprague-Dawley
# Set-up: regimen Daily Repeat, gender Male, age 6-8 weeks
# Settings: in vivo, vehicle 100 % SALINE; for ABSOLUTE BASOPHIL / ABSOLUTE EOSINOPHIL / ABSOLUTE LYMPHOCYTE / ABSOLUTE MONOCYTE / ABSOLUTE SEGMENTED NEUTROPHIL / BASOPHIL / EOSINOPHIL / ERYTHROCYTE COUNT / HEMATOCRIT / HEMOGLOBIN / LEUKOCYTE COUNT / LYMPHOCYTE / MEAN CORPUSCULAR HEMOGLOBIN / MEAN CORPUSCULAR HEMOGLOBIN CONCENTRATION / MEAN CORPUSCULAR VOLUME / MONOCYTE / NEUTROPHIL / NUCLEATED RED BLOOD CELLS / PLATELET COUNT: tissue Blood
# [1] = iv, 0 mg/kg, 72 h, dose level Control, time 3 day
# [2] = iv, 0 mg/kg, 72 h, tissue Plasma, dose level Control, time 3 day
# [3] = iv, 0 mg/kg, 120 h, dose level Control, time 5 day
# [4] = iv, 0 mg/kg, 120 h, tissue Plasma, dose level Control, time 5 day
# [5] = iv, 6 mg/kg, 72 h, dose level Low, time 3 day
# [6] = iv, 6 mg/kg, 72 h, tissue Plasma, dose level Low, time 3 day
sequence,measurement,setting,value
CARBOPLATIN,TOTAL PROTEIN,"ip, 5 mg/kg, […], tissue Plasma, route intraperitoneal, dose level High, time 28 day",6.92 G/DL
same,ABSOLUTE BASOPHIL,[1],0 CELLS/uL
same,ABSOLUTE EOSINOPHIL,[1],0 CELLS/uL
same,ABSOLUTE LYMPHOCYTE,[1],7026.17 CELLS/uL
same,ABSOLUTE MONOCYTE,[1],44.33 CELLS/uL
same,ABSOLUTE SEGMENTED NEUTROPHIL,[1],379.5 CELLS/uL
same,BASOPHIL,[1],0%
same,EOSINOPHIL,[1],0%
same,ERYTHROCYTE COUNT,[1],5.49 x10E6/uL
same,HEMATOCRIT,[1],33.67%
same,HEMOGLOBIN,[1],13.17 G/DL
same,LEUKOCYTE COUNT,[1],7.45 x10E3/uL
same,LYMPHOCYTE,[1],94%
same,MEAN CORPUSCULAR HEMOGLOBIN,[1],24.03 pg
same,MEAN CORPUSCULAR HEMOGLOBIN CONCENTRATION,[1],39.15 G/DL
same,MEAN CORPUSCULAR VOLUME,[1],61.4 fL
same,MONOCYTE,[1],0.67%
same,NEUTROPHIL,[1],5.33%
same,NUCLEATED RED BLOOD CELLS,[1],0.17 /100WBC
same,PLATELET COUNT,[1],1062.5 x10E3/uL
same,ALANINE AMINOTRANSFERASE,[2],53.17 u/L
same,ALKALINE PHOSPHATASE,[2],339.83 u/L
same,ASPARTATE AMINOTRANSFERASE,[2],83.33 u/L
same,BLOOD UREA NITROGEN,[2],16 mg/dL
same,CARBON DIOXIDE,[2],32.5 mmol/L
same,CHLORIDE,[2],98 MEQ/L
same,CHOLESTEROL,[2],74.67 mg/dL
same,CREATINE PHOSPHOKINASE,[2],284 u/L
same,CREATININE,[2],0.2 mg/dL
same,GLUCOSE,[2],128.67 mg/dL
same,LACTATE DEHYDROGENASE,[2],110.33 u/L
same,LIPASE,[2],9 u/L
same,PHOSPHORUS,[2],11.73 mg/dL
same,POTASSIUM,[2],6.34 MEQ/L
same,TOTAL BILIRUBIN,[2],0.18 mg/dL
same,TOTAL PROTEIN,[2],6.2 G/DL
same,URIC ACID,[2],1.28 mg/dL
same,ABSOLUTE BASOPHIL,[3],0 CELLS/uL
same,ABSOLUTE EOSINOPHIL,[3],26.67 CELLS/uL
same,ABSOLUTE LYMPHOCYTE,[3],8334.17 CELLS/uL
same,ABSOLUTE MONOCYTE,[3],29.5 CELLS/uL
same,ABSOLUTE SEGMENTED NEUTROPHIL,[3],593 CELLS/uL
same,BASOPHIL,[3],0%
same,EOSINOPHIL,[3],0.33%
same,ERYTHROCYTE COUNT,[3],5.44 x10E6/uL
same,HEMATOCRIT,[3],33.77%
same,HEMOGLOBIN,[3],13.05 G/DL
same,LEUKOCYTE COUNT,[3],8.98 x10E3/uL
same,LYMPHOCYTE,[3],92.33%
same,MEAN CORPUSCULAR HEMOGLOBIN,[3],24 pg
same,MEAN CORPUSCULAR HEMOGLOBIN CONCENTRATION,[3],38.67 G/DL
same,MEAN CORPUSCULAR VOLUME,[3],62.05 fL
same,MONOCYTE,[3],0.33%
same,NEUTROPHIL,[3],7%
same,NUCLEATED RED BLOOD CELLS,[3],0 /100WBC
same,PLATELET COUNT,[3],987 x10E3/uL
same,ALANINE AMINOTRANSFERASE,[4],43.5 u/L
same,ALKALINE PHOSPHATASE,[4],310.17 u/L
same,ASPARTATE AMINOTRANSFERASE,[4],76.67 u/L
same,BLOOD UREA NITROGEN,[4],17 mg/dL
same,CHLORIDE,[4],100.33 MEQ/L
same,CHOLESTEROL,[4],69.33 mg/dL
same,CREATINE PHOSPHOKINASE,[4],218.67 u/L
same,CREATININE,[4],0.22 mg/dL
same,GLUCOSE,[4],155.17 mg/dL
same,PHOSPHORUS,[4],11.2 mg/dL
same,POTASSIUM,[4],5.5 MEQ/L
same,TOTAL BILIRUBIN,[4],0.18 mg/dL
same,TOTAL PROTEIN,[4],5.97 G/DL
same,URIC ACID,[4],0.88 mg/dL
same,ABSOLUTE BASOPHIL,[5],0 CELLS/uL
same,ABSOLUTE EOSINOPHIL,[5],20.67 CELLS/uL
same,ABSOLUTE LYMPHOCYTE,[5],6996.67 CELLS/uL
same,ABSOLUTE MONOCYTE,[5],29.33 CELLS/uL
same,ABSOLUTE SEGMENTED NEUTROPHIL,[5],353.33 CELLS/uL
same,BASOPHIL,[5],0%
same,EOSINOPHIL,[5],0.33%
same,ERYTHROCYTE COUNT,[5],5.49 x10E6/uL
same,HEMATOCRIT,[5],35.33%
same,HEMOGLOBIN,[5],13.67 G/DL
same,LEUKOCYTE COUNT,[5],7.4 x10E3/uL
same,LYMPHOCYTE,[5],94.67%
same,MEAN CORPUSCULAR HEMOGLOBIN CONCENTRATION,[5],38.67 G/DL
same,MONOCYTE,[5],0.33%
same,NEUTROPHIL,[5],4.67%
same,NUCLEATED RED BLOOD CELLS,[5],0 /100WBC
same,PLATELET COUNT,[5],803.67 x10E3/uL
same,ALANINE AMINOTRANSFERASE,[6],44.67 u/L
same,ALBUMIN,[6],4.3 G/DL
same,ALKALINE PHOSPHATASE,[6],291.67 u/L
same,ASPARTATE AMINOTRANSFERASE,[6],75.67 u/L
same,CARBON DIOXIDE,[6],32 mmol/L
same,CHLORIDE,[6],97.67 MEQ/L
same,CHOLESTEROL,[6],72.33 mg/dL
same,CREATINE PHOSPHOKINASE,[6],262.33 u/L
same,CREATININE,[6],0.2 mg/dL
same,GLUCOSE,[6],147.33 mg/dL
same,LACTATE DEHYDROGENASE,[6],105 u/L
same,LIPASE,[6],9 u/L
same,POTASSIUM,[6],6.04 MEQ/L
same,TOTAL BILIRUBIN,[6],0.17 mg/dL

# — ChEMBL document CHEMBL3885881, “DrugMatrix”
